From US20050276767A1, “Composition containing an oily phase and a naphthopyran dye, cosmetic treatment processes” (L'OREAL, priority 2002, published 2005)

Key:
Format in all cases: physicochemical
[1] = ΔE before/after UVA irradiation of dyes at 1% in a white lipstick base (Example 5); conditions: 1% by weight dye in white lipstick base; UVA 2 mW/cm^2 for two minutes
Procedure: The ΔE (before and after UV irradiation for 2 minutes) of various photochromic dyes according to the invention was determined, at 1% by weight in a white lipstick base comprising:
A composition comprising 1% of dye according to the invention and 99% of the above base is thus prepared.
(§1) The L, a and b measurements were performed on a Leneta brand contrast card of reference Form 1A Penopac, for a composition spread to a thickness of 50 microns.
(§2) The reflection measurements were performed using a Minolta 3700D spectrocolorimeter.
(§3) The initial trichromatic coordinates of the composition before irradiation (L0, a0 and b0) were thus determined.
(§4) The compositions were then subjected to a UV irradiation (flux of 2 mW/cm^2 of a UVA radiation) for two minutes and then, immediately after stopping the irradiation, the trichromatic coordinates after irradiation (L, a and b) were determined. Less than 5 seconds elapsed between the stopping of the irradiation and the determination of the new coordinates.
(§5) The ΔE was then calculated in the following manner: ΔE=[(L−L0)^2+(a−a0)^2+(b−b0)^2]^1/2

[2] = Visual colour change of the dye solution in phenylsilicone oil on UV (sunlight) irradiation (Example 2); conditions: 0.05% by weight in phenylsilicone oil DC556
Procedure: A solution comprising 0.05% by weight of 3-phenyl-3-(4-piperidinophenyl)-6-morpholino-3H-naphtho[2,1-b]pyran (Reversacol Ruby from James Robinson) in a phenylsilicone oil (DC556 from Dow Corning) was prepared. The mixture was then irradiated with UV (sunlight) for 2 minutes.

[3] = ΔE before/after UVA irradiation of wax-structured compositions, 50 micron film on contrast card, reflection (Examples 3 and 8)
Procedure: as §1, §2
The initial trichromatic coordinates of the composition before irradiation (L0, a0 and b0) were thus determined. The composition was then subjected to a UV irradiation (flux of 2 mW/cm^2 of a UVA radiation) for two minutes and then, immediately after stopping the irradiation, the trichromatic coordinates after irradiation (L, a and b) were determined. Less than 5 seconds elapsed between the stopping of the irradiation and the determination of the new coordinates.
The ΔE was then calculated in the following manner: ΔE=[(L−L0)^2+(a−a0)^2+(b−b0) ^2]^1/2
A composition was prepared, comprising: • 0.05% by weight of 3-phenyl-3-(4-piperidinophenyl)-6-morpholino-3H-naphtho[2,1-b]pyran (Reversacol Ruby from James Robinson), • 15% by weight of polyethylene wax (apolar wax), • qs 100% of phenylsilicone oil (DC556 from Dow Corning).
as §3
as §4, with “composition was” for “compositions were”
as §5
15% by weight of polyethylene wax (apolar wax) was added to the mixtures prepared in Example 6 (oils+0.05% by weight of Reversacol Ruby dye), and the trichromatic coordinates L, a and b were then measured, before and after irradiation with UV for 2 minutes (flux of 2 mW/cm^2 of UVA) on thin films of composition, 50 microns thick, poured onto a contrast card.
To do this, a Minolta 3700D spectrocolorimeter in reflection mode was used; less than 5 seconds elapsed between stopping the irradiation and determining the new coordinates.

[4] = Solubility of the dye in various silicone oils, observed with the naked eye (Example 1)
Procedure: The term “soluble” means that the dyes form a uniform mixture, free of particles that are apparent to the naked eye, at 25° C. and 1 atmosphere, in a proportion of 0.05% by weight in the oily phase.
The solubility of a dye according to the invention in various silicone oils was studied. Several mixtures comprising 0.05% by weight of 3-phenyl-3-(4-piperidinophenyl)-6-morpholino-3H-naphtho[2,1-b]pyran (Reversacol Ruby from James Robinson) in various oils were thus prepared, and the mixture was then heated to 60° C. with stirring.

[5] = ΔE of oil + dye mixtures after UVA irradiation (Example 7); design: key: ΔE = [(Lm′−Lm)^2+(am′−am)^2+(bm′−bm)^2]^1/2, before vs after UVA; conditions: UVA 2 mW/cm^2 for 2 minutes
Procedure: The mixtures prepared in Example 6 were irradiated with UV (flux of 2 mW/cm^2 of UVA) for 2 minutes.
The trichromatic coordinates of the mixture after irradiation (Lm′, am′ and bm′) were again determined, as in Example 2, and the ΔE was calculated in the following manner: ΔE=[(Lm′−Lm)^2+(am′−am)^2+(bm′−bm)^2]^1/2.
Less than 5 seconds elapsed between stopping the irradiation and determining the new coordinates.

[6] = Solvatochromism: ΔE′ of oil + dye mixture versus oil alone, transmission, no UV (Example 6); design: key: ΔE′ = √(ΔL²+Δa²+Δb²), oil alone vs oil+dye, transmission; conditions: without UV
Procedure: The trichromatic coordinates (Lh, ah and bh) of the oil alone and of the oil+dye mixture (Lm, am and bm) were thus determined, and the ΔE′ was calculated in the following manner: ΔE′=[Lh−Lm)^2+(ah−am)^2+(bh−bm)^2]^1/2.
To do this, a Minolta 3700D spectrocolorimeter in transmission mode was used, with a plastic cuvette (“cuvette walls+oil+optional dye” optical path length=1 cm).

[7] = 0.05% dye in Capric/caprylic acid triglyceride
[8] = 0.05% dye in Diisostearyl malate
[9] = 0.05% dye in Hydrogenated polyisobutene
[10] = 0.05% dye in Isononyl isononanoate
[11] = 0.05% dye in Tridecyl trimellitate

Work on `COc1ccc(C2(c3ccc(OC)cc3)C=Cc3c(cc(N4CCOCC4)c4ccccc34)O2)cc1` [3,3-di(4-methoxyphenyl)-6-morpholino-3H-naphtho-[2,1-b]pyran] yielded a ΔE [1] of 51.

For `C1=CC(c2ccccc2)(c2ccc(N3CCCCC3)cc2)Oc2cc(N3CCOCC3)c3ccccc3c21` (stereo not drawn) [Reversacol Ruby, 3-phenyl-3-(4-piperidinophenyl)-6-morpholino-3H-naphtho[2,1-b]pyran], the “Initial coloration of the mixture before irradiation” value [2] was “pink”, the Coloration after irradiation ([2]; UV (sunlight) for 2 minutes) was “strong orange-red” and the ΔE ([3]; 0.05% dye, 15% polyethylene wax, qs phenylsilicone oil DC556, UVA 2 mW/cm^2 for two minutes) was 37.38. It also gave a ΔE ([3]; 15% wax + 0.05% dye in Castor oil, UVA 2 mW/cm^2 for 2 minutes, 50 micron film) of 26.75, a ΔE ([3]; 15% wax + 0.05% dye in Diisostearyl malate, UVA 2 mW/cm^2 for 2 minutes, 50 micron film) of 43.12 and a ΔE ([3]; 15% wax + 0.05% dye in Hydrogenated polyisobutene, UVA 2 mW/cm^2 for 2 minutes, 50 micron film) of 18.36. For the same molecule, the ΔE ([3]; 15% wax + 0.05% dye in Isododecane, UVA 2 mW/cm^2 for 2 minutes, 50 micron film) was 27.21, the ΔE ([3]; 15% wax + 0.05% dye in Isononyl isononanoate, UVA 2 mW/cm^2 for 2 minutes, 50 micron film) was 27.74 and the ΔE ([3]; 15% wax + 0.05% dye in Octyldodecanol, UVA 2 mW/cm^2 for 2 minutes, 50 micron film) was 31.09. For the same molecule, the ΔE ([3]; 15% wax + 0.05% dye in Tridecyl trimellitate, UVA 2 mW/cm^2 for 2 minutes, 50 micron film) was 31.98, the ΔE ([3]; 15% wax + 0.05% dye in Triisononanoin, UVA 2 mW/cm^2 for 2 minutes, 50 micron film) was 33.70 and the “Dissolution at elevated temperature (60° C.)” value ([4]; 0.05% by weight dye in Phenyltrimethylsiloxytrisiloxane (20 cSt) DC556 from Dow Corning) was “Total dissolution”. For the same molecule, the “Dissolution at elevated temperature (60° C.)” value ([4]; 0.05% by weight dye in Polyphenyltrimethylsiloxydimethylsiloxane (1000 cSt) Belsil PDM 1000 from Wacker) was “Total dissolution”, the “Coloration of the solution of the dye (solvatochromic effect)” value ([4]; in the phenylsilicones, not for the other oils) was “pink coloration” and the “Dissolution in the other silicone-based media after cooling to room temperature” value ([4]; non-phenylated silicone media, room temperature) was “virtually undissolved”. The “Dissolution at elevated temperature in non-phenylated oils” value ([4]; non-phenylated silicone oils, elevated temperature) was “dissolves poorly”, the “Dissolution at elevated temperature in the phenylated oils” value ([4]; phenylated silicone oils, irrespective of viscosity, elevated temperature) was “complete” and the “Dissolution in phenylsilicones after cooling to room temperature” value ([4]; phenylsilicones, room temperature) was “virtually complete dissolution”. For the same molecule, the ΔE [5, 7] was 23.70, the ΔE ([5]; 0.05% dye in Castor oil) was 19.02 and the ΔE [5, 8] was 38.79. It also gave a ΔE [5, 9] of 17.69, a ΔE ([5]; 0.05% dye in Isododecane) of 19.17 and a ΔE [5, 10] of 25.47. It also gave a ΔE ([5]; 0.05% dye in Octyldodecanol) of 20.88, a ΔE [5, 11] of 13.74 and a ΔE ([5]; 0.05% dye in Triisononanoin) of 21.62. For the same molecule, the ΔE [1] was 49, the “ΔE′ of the oil + dye mixture” value [6, 7] was 12.4093 and the “ΔE′ of the oil + dye mixture” value ([6]; 0.05% dye in Castor oil) was 33.6278. The “ΔE′ of the oil + dye mixture” value [6, 8] was 12.9041, the “ΔE′ of the oil + dye mixture” value [6, 9] was 6.6920 and the “ΔE′ of the oil + dye mixture” value ([6]; 0.05% dye in Isododecane) was 4.2421. For the same molecule, the “ΔE′ of the oil + dye mixture” value [6, 10] was 7.7386, the “ΔE′ of the oil + dye mixture” value ([6]; 0.05% dye in Octyldodecanol) was 37.6049 and the “ΔE′ of the oil + dye mixture” value [6, 11] was 14.2178. The “ΔE′ of the oil + dye mixture” value ([6]; 0.05% dye in Triisononanoin) was 12.8122.

For `C1=CC(c2ccccc2)(c2ccc(N3CCOCC3)cc2)Oc2cc(N3CCOCC3)c3ccccc3c21` (stereo not drawn) [3-phenyl-3-(4-morpholinophenyl)-6-morpholino-3H-naphtho[2,1-b]pyran], the ΔE [1] was 53.
